Data from PubChem BioAssay AID1259407 (Chemical Carcinogenesis Research Information System (CCRIS), 2018).
Calls of active or inactive are those of the source. The rule behind the calls is not given here.

System: CCRIS mutagenicity, Ames/micronucleus/aberration tests
Experiment: CCRIS mutagenicity studies
[1] = Test System: AMES SALMONELLA TYPHIMURIUM, Strain/Indicator: TA98, Metabolic Activation: NONE, Method: PREINCUBATION
[2] = Test System: AMES SALMONELLA TYPHIMURIUM, Strain/Indicator: TA98, Metabolic Activation: NONE, Method: STANDARD PLATE
[3] = Test System: AMES SALMONELLA TYPHIMURIUM, Strain/Indicator: TA100, Metabolic Activation: NONE, Method: PREINCUBATION
[4] = Test System: AMES SALMONELLA TYPHIMURIUM, Strain/Indicator: TA100, Metabolic Activation: NONE, Method: STANDARD PLATE
[5] = Test System: AMES SALMONELLA TYPHIMURIUM, Strain/Indicator: TA1535, Metabolic Activation: NONE, Method: PREINCUBATION

Measured: mutagenic call

C[C@]1(Cn2ccnn2)[C@H](C(=O)O)N2C(=O)C[C@H]2S1(=O)=O
inactive: Test System: AMES SALMONELLA TYPHIMURIUM, Strain/Indicator: TA98, Metabolic Activation: HAMSTER, LIVER, S-9, AROCLOR 1254, Method: STANDARD PLATE inactive; negative | [1] inactive; negative | [2] inactive; negative | Test System: AMES SALMONELLA TYPHIMURIUM, Strain/Indicator: TA98, Metabolic Activation: S-9, Method: PREINCUBATION inactive; negative | Test System: AMES SALMONELLA TYPHIMURIUM, Strain/Indicator: TA100, Metabolic Activation: HAMSTER, LIVER, S-9, AROCLOR 1254, Method: STANDARD PLATE inactive; negative | [3] inactive; negative | [4] inactive; negative | Test System: AMES SALMONELLA TYPHIMURIUM, Strain/Indicator: TA100, Metabolic Activation: S-9, Method: PREINCUBATION inactive; negative | Test System: AMES SALMONELLA TYPHIMURIUM, Strain/Indicator: TA102, Metabolic Activation: HAMSTER, LIVER, S-9, AROCLOR 1254, Method: STANDARD PLATE inactive; negative | Test System: AMES SALMONELLA TYPHIMURIUM, Strain/Indicator: TA102, Metabolic Activation: NONE, Method: STANDARD PLATE inactive; negative | [5] inactive; negative | Test System: AMES SALMONELLA TYPHIMURIUM, Strain/Indicator: TA1535, Metabolic Activation: S-9, Method: PREINCUBATION inactive; negative | Test System: AMES SALMONELLA TYPHIMURIUM, Strain/Indicator: TA1537, Metabolic Activation: NONE, Method: PREINCUBATION inactive; negative | Test System: AMES SALMONELLA TYPHIMURIUM, Strain/Indicator: TA1537, Metabolic Activation: S-9, Method: PREINCUBATION inactive; negative | Test System: E. COLI, Strain/Indicator: WP2 UVRA, Metabolic Activation: NONE, Method: PREINCUBATION inactive; negative | Test System: E. COLI, Strain/Indicator: WP2 UVRA, Metabolic Activation: S-9, Method: PREINCUBATION inactive; negative

Nc1ccc(N)c2c1C(=O)c1c(N)ccc(N)c1C2=O
active: End Point: IN VITRO CHROMOSOMAL ABERRATIONS, Test System: CHO CELLS, Metabolic Activation: NONE active; positive | End Point: IN VITRO CHROMOSOMAL ABERRATIONS, Test System: CHO CELLS, Metabolic Activation: RAT, LIVER, S-9, AROCLOR 1254 active; positive | Test System: AMES SALMONELLA TYPHIMURIUM, Strain/Indicator: TA97, Metabolic Activation: HAMSTER, LIVER, S-9, AROCLOR 1254, Method: PREINCUBATION active; positive | Test System: AMES SALMONELLA TYPHIMURIUM, Strain/Indicator: TA97, Metabolic Activation: NONE, Method: PREINCUBATION active; positive | Test System: AMES SALMONELLA TYPHIMURIUM, Strain/Indicator: TA97, Metabolic Activation: RAT, LIVER, S-9, AROCLOR 1254, Method: PREINCUBATION active; positive | Test System: AMES SALMONELLA TYPHIMURIUM, Strain/Indicator: TA98, Metabolic Activation: HAMSTER, LIVER, S-9, AROCLOR 1254 (10%), Method: PREINCUBATION active; positive | Test System: AMES SALMONELLA TYPHIMURIUM, Strain/Indicator: TA98, Metabolic Activation: HAMSTER, LIVER, S-9, AROCLOR 1254, Method: PREINCUBATION active; positive | [1] active; positive | Test System: AMES SALMONELLA TYPHIMURIUM, Strain/Indicator: TA98, Metabolic Activation: RAT, LIVER, S-9, AROCLOR 1254 (10%), Method: PREINCUBATION active; positive | Test System: AMES SALMONELLA TYPHIMURIUM, Strain/Indicator: TA98, Metabolic Activation: RAT, LIVER, S-9, AROCLOR 1254, Method: PREINCUBATION active; positive | Test System: AMES SALMONELLA TYPHIMURIUM, Strain/Indicator: TA1535, Metabolic Activation: HAMSTER, LIVER, S-9, AROCLOR 1254 (10%), Method: PREINCUBATION active; positive | Test System: AMES SALMONELLA TYPHIMURIUM, Strain/Indicator: TA1535, Metabolic Activation: HAMSTER, LIVER, S-9, AROCLOR 1254, Method: PREINCUBATION active; positive | Test System: AMES SALMONELLA TYPHIMURIUM, Strain/Indicator: TA1535, Metabolic Activation: RAT, LIVER, S-9, AROCLOR 1254 (10%), Method: PREINCUBATION active; positive | Test System: AMES SALMONELLA TYPHIMURIUM, Strain/Indicator: TA1535, Metabolic Activation: RAT, LIVER, S-9, AROCLOR 1254, Method: PREINCUBATION active; positive | Test System: AMES SALMONELLA TYPHIMURIUM, Strain/Indicator: TA1537, Metabolic Activation: NONE, Method: STANDARD PLATE active; positive | Test System: MOUSE LYMPHOMA, Strain/Indicator: L5178Y (TK+/TK-), Metabolic Activation: NONE, Method: SUSPENSION/PLATE active; positive
inactive: Test System: AMES SALMONELLA TYPHIMURIUM, Strain/Indicator: TA97, Metabolic Activation: HAMSTER, LIVER, S-9, AROCLOR 1254 (10%), Method: PREINCUBATION inactive; negative | Test System: AMES SALMONELLA TYPHIMURIUM, Strain/Indicator: TA97, Metabolic Activation: RAT, LIVER, S-9, AROCLOR 1254 (10%), Method: PREINCUBATION inactive; negative | [2] inactive; negative | Test System: AMES SALMONELLA TYPHIMURIUM, Strain/Indicator: TA98, Metabolic Activation: RAT, LIVER, S-9, AROCLOR 1254, Method: STANDARD PLATE inactive; negative | Test System: AMES SALMONELLA TYPHIMURIUM, Strain/Indicator: TA100, Metabolic Activation: HAMSTER, LIVER, S-9, AROCLOR 1254 (10%), Method: PREINCUBATION inactive; negative | Test System: AMES SALMONELLA TYPHIMURIUM, Strain/Indicator: TA100, Metabolic Activation: HAMSTER, LIVER, S-9, AROCLOR 1254, Method: PREINCUBATION inactive; negative | [3] inactive; negative | [4] inactive; negative | Test System: AMES SALMONELLA TYPHIMURIUM, Strain/Indicator: TA100, Metabolic Activation: RAT, LIVER, S-9, AROCLOR 1254 (10%), Method: PREINCUBATION inactive; negative | Test System: AMES SALMONELLA TYPHIMURIUM, Strain/Indicator: TA100, Metabolic Activation: RAT, LIVER, S-9, AROCLOR 1254, Method: PREINCUBATION inactive; negative | Test System: AMES SALMONELLA TYPHIMURIUM, Strain/Indicator: TA100, Metabolic Activation: RAT, LIVER, S-9, AROCLOR 1254, Method: STANDARD PLATE inactive; negative | [5] inactive; negative | Test System: AMES SALMONELLA TYPHIMURIUM, Strain/Indicator: TA1535, Metabolic Activation: NONE, Method: STANDARD PLATE inactive; negative | Test System: AMES SALMONELLA TYPHIMURIUM, Strain/Indicator: TA1535, Metabolic Activation: RAT, LIVER, S-9, AROCLOR 1254, Method: STANDARD PLATE inactive; negative | Test System: AMES SALMONELLA TYPHIMURIUM, Strain/Indicator: TA1538, Metabolic Activation: RAT, LIVER, S-9, AROCLOR 1254, Method: STANDARD PLATE inactive; negative
